Several values for one entry are separate records, joined by “and”; a condition that tells them apart may be missing. Equal entries are not always repeated.
What was measured:
HepG2 = experiment: Repeated-exposure DILI training compounds, resazurin conversion, HepG2; conditions: replicates, listed as Ximelatagran
Experimental: (§1) To evaluate the ability to predict hepatotoxicity, we adapted the differentiation assays to a 384-well format. […] As a readout, we evaluated cell viability by resazurin conversion and correlated the results to therapeutic doses (Cmax values).
(§2) PSCs were differentiated in a 384-well format. […] As a negative control, 41 wells were left untreated. HepG2 were seeded at 40,000 cells per well. […] Cells were fixed with 4% PFA. […] Drugs were administrated after 8 h of attachment.

HLC = experiment: Repeated-exposure DILI training compounds, resazurin conversion, HLC; conditions: replicates, listed as Ximelatagran
Experimental: as §1, §2

HC3X = experiment: Repeated-exposure DILI training compounds, resazurin conversion, HC3X; conditions: for resazurin conversion (Supplementary Figure 7D): HC3X AAGLY D40, replicates, listed as Ximelatagran
Experimental: as §1, §2

HC6X = experiment: Repeated-exposure DILI training compounds, resazurin conversion, HC6X; conditions: replicates, listed as Ximelatagran
Experimental: as §1, §2

With `CCOC(=O)CN[C@@H](C(=O)N1CC[C@H]1C(=O)NCc1ccc(/C(N)=N\O)cc1)C1CCCCC1` [ximelagatran] the “resazurin conversion (Supplementary Figure 7D)” value (“resazurin conversion” below) (HepG2; HepG2 AAGLY D30, 10 uM) was 94.6 and 101.9 and 93.6, the “resazurin conversion” value (HepG2; HepG2 AAGLY D30, 30 uM) was 92.6 and 98.4 and 83.3 and 96.4 and 96.6 and 94.8 and the “resazurin conversion” value (HepG2; HepG2 AAGLY D30, 50 uM) was 93.8 and 101.4 and 83.8 and 100.6 and 100.8 and 103. The “resazurin conversion” value (HepG2; HepG2 AAGLY D30, 100 uM) was 87.1 and 96.4 and 79.9 and 96 (2×) and 99.8, the “resazurin conversion” value (HepG2; HepG2 AAGLY D30, 300 uM) was 79.2 and 92.1 and 83.1 and 91.5 (2×) and 86.4 and the “resazurin conversion” value (HepG2; HepG2 AAGLY D30, 500 uM) was 73.8 and 82.7 and 72.5 and 77.3 and 81.8 and 90.8. The “resazurin conversion” value (HepG2; HepG2 AAGLY D30, 1000 uM) was 33.4 and 32.8 and 32.2 and 33.5 and 33 and 34, the “resazurin conversion” value (HepG2; HepG2 AAGLY D30, 2000 uM) was 32.1 and 33.4 and 32.3 and 33 and 31.5 and 35.4 and the “resazurin conversion” value (HepG2; HepG2 AAGLY D30, 4000 uM) was 32.2 and 33.1 and 31.8 and 32.9 (2×) and 31.4. For the same compound, the “resazurin conversion” value (HepG2; HepG2 CTL D7, 10 uM) was 100, the “resazurin conversion” value (HepG2; HepG2 CTL D7, 30 uM) was 113.6 and 106.8 and 92.5 and 99.4 and 103.9 and 98.2 and the “resazurin conversion” value (HepG2; HepG2 CTL D7, 50 uM) was 100.3 and 102 and 94.9 and 85.4 and 97.6 and 93. The “resazurin conversion” value (HepG2; HepG2 CTL D7, 100 uM) was 99.5 and 95.1 and 87 and 84.8 and 92.1 and 91.7, the “resazurin conversion” value (HepG2; HepG2 CTL D7, 300 uM) was 98.7 and 94.5 and 90.1 and 84 and 87.6 and 84.8 and the “resazurin conversion” value (HepG2; HepG2 CTL D7, 500 uM) was 86.4 and 89.2 and 85.2 and 81.4 and 85.9 and 81.5. For the same compound, the “resazurin conversion” value (HepG2; HepG2 CTL D7, 1000 uM) was 71.2 and 56.7 and 60.3 and 67.6 and 70.2 and 66, the “resazurin conversion” value (HepG2; HepG2 CTL D7, 2000 uM) was 35.7 and 15 and 22 and 29.6 and 28.3 and 27.1 and the “resazurin conversion” value (HepG2; HepG2 CTL D7, 4000 uM) was 7.9 (2×) and 7.7 (3×) and 8. For the same compound, the “resazurin conversion” value (HLC; HLC AAGLY D40, 30 uM) was 87.9 and 61.4 and 89.7 and 86.8 and 95.5 and 101.7, the “resazurin conversion” value (HLC; HLC AAGLY D40, 50 uM) was 102.7 and 110.5 and 84 and 85.7 and 101.4 and 47.2 and the “resazurin conversion” value (HLC; HLC AAGLY D40, 100 uM) was 101.8 and 83.1 and 91.6 and 97.8 and 108.1 and 71.2. For the same compound, the “resazurin conversion” value (HLC; HLC AAGLY D40, 300 uM) was 102 and 100.4 and 103.4 and 99.6 and 91.1 and 43.4, the “resazurin conversion” value (HLC; HLC AAGLY D40, 500 uM) was 103.1 and 102.1 and 106.2 and 106.4 and 103.3 and 93.1 and the “resazurin conversion” value (HLC; HLC AAGLY D40, 1000 uM) was 124.2 and 94.4 and 100.6 and 122 and 108.3 and 107.9. The “resazurin conversion” value (HLC; HLC AAGLY D40, 2000 uM) was 74 and 131.7 and 126.4 and 135.7 and 116.8 and 129.6, the “resazurin conversion” value (HLC; HLC AAGLY D40, 4000 uM) was 129.4 and 115 and 25.5 and 112.7 and 127.1 and 50.9 and the “resazurin conversion” value (HLC; HLC LDM D40, 10 uM) was 103 and 119.6 and 106.5 and 118.8. For the same compound, the “resazurin conversion” value (HLC; HLC LDM D40, 30 uM) was 98.9 and 98.8 and 106 and 104.1 and 100.4 and 102.4, the “resazurin conversion” value (HLC; HLC LDM D40, 50 uM) was 120.6 and 118.1 and 72.7 and 111.9 and 69.1 and 123.9 and the “resazurin conversion” value (HLC; HLC LDM D40, 100 uM) was 93.8 and 126.7 and 78.4 and 121.1 and 87.3 and 126.3. The “resazurin conversion” value (HLC; HLC LDM D40, 300 uM) was 125.4 and 106 and 125.6 and 93.6 and 136.9 and 112.2, the “resazurin conversion” value (HLC; HLC LDM D40, 500 uM) was 130.3 and 128.1 and 99.5 and 124.6 and 98 and 115.9 and the “resazurin conversion” value (HLC; HLC LDM D40, 1000 uM) was 132.9 and 140 and 126.4 and 146.9 and 116.4 and 158.5. For the same compound, the “resazurin conversion” value (HLC; HLC LDM D40, 2000 uM) was 87.8 and 64.2 and 95.2 and 125.1 and 69.7 and 117.1, the “resazurin conversion” value (HLC; HLC LDM D40, 4000 uM) was 52.7 and 74.5 and 71.5 and 69.4 and 112 and 163.8 and the “resazurin conversion” value (HC3X; 10 uM) was 103.6 and 112.1 and 116.7 and 110.7 and 88 and 80.4. For the same compound, the “resazurin conversion” value (HC3X; 30 uM) was 112.5 and 93.4 and 100.9 and 65.5 and 110.1 and 86, the “resazurin conversion” value (HC3X; 50 uM) was 112.6 and 97.1 and 99.6 and 78.9 and 96.7 and 79.4 and the “resazurin conversion” value (HC3X; 100 uM) was 99 and 94.2 and 111.5 and 113 and 97.2 and 95.7. The “resazurin conversion” value (HC3X; 300 uM) was 105.9 and 98.6 and 86.6 and 80.1 and 95.6 and 93.9, the “resazurin conversion” value (HC3X; 500 uM) was 93.3 and 104.7 and 99.6 and 103.7 and 88.7 and 115 and the “resazurin conversion” value (HC3X; 1000 uM) was 89.5 and 109.6 and 93 and 88.2 and 108.4 and 91.9. For the same compound, the “resazurin conversion” value (HC3X; 2000 uM) was 61.4 and 104.7 and 97.3 and 97.1 and 64.3 and 60.4, the “resazurin conversion” value (HC3X; 4000 uM) was 43.9 and 48.4 and 38 and 42.8 and 47.8 and 45 and the IC50/Cmax (HC3X; human) was 2438.67. For the same compound, the “resazurin conversion” value (HC6X; HC6X AAGLY D40, 10 uM) was 93.8 and 58.7 and 78.1 and 118.1, the “resazurin conversion” value (HC6X; HC6X AAGLY D40, 30 uM) was 71.1 and 54.3 and 108.4 and 77.4 and 109.2 and 98.7 and the “resazurin conversion” value (HC6X; HC6X AAGLY D40, 50 uM) was 68.8 and 53.6 and 125.9 and 98.4 and 222.1 and 82.6. For the same compound, the “resazurin conversion” value (HC6X; HC6X AAGLY D40, 100 uM) was 99.7 and 88.3 and 135.4 and 113.5 and 107.4 and 93.9, the “resazurin conversion” value (HC6X; HC6X AAGLY D40, 300 uM) was 82 and 93.2 and 129.1 and 140.3 and 141.2 and 166.5 and the “resazurin conversion” value (HC6X; HC6X AAGLY D40, 500 uM) was 65.3 and 103.3 and 98.2 and 91.7 and 122.8 and 148.3. The “resazurin conversion” value (HC6X; HC6X AAGLY D40, 1000 uM) was 71.6 and 76.5 and 78.4 and 144 and 115.7 and 139.1, the “resazurin conversion” value (HC6X; HC6X AAGLY D40, 2000 uM) was 61.7 and 53.9 and 78.6 and 67 and 113.9 and 90 and the “resazurin conversion” value (HC6X; HC6X AAGLY D40, 4000 uM) was 54.4 and 81.3 and 84.4 and 85.7 and 55.2 and 56.8. The “resazurin conversion” value (HC6X; HC6X AAGLY D40 Remove dox, 30 uM) was 72.9 and 78.3 and 89.9 and 101.5 and 95.4 and 95.8, the “resazurin conversion” value (HC6X; HC6X AAGLY D40 Remove dox, 50 uM) was 55.3 and 86.1 and 70.5 and 85.8 and 92.1 and 68.6 and the “resazurin conversion” value (HC6X; HC6X AAGLY D40 Remove dox, 100 uM) was 82.1 and 85 and 79 and 110.7 and 88.3 and 96.6. For the same compound, the “resazurin conversion” value (HC6X; HC6X AAGLY D40 Remove dox, 300 uM) was 99.4 and 92.8 and 102.5 and 91.4 and 94.8 and 77.9, the “resazurin conversion” value (HC6X; HC6X AAGLY D40 Remove dox, 500 uM) was 78.1 and 81.7 and 105.3 and 97 and 101.1 and 82.7 and the “resazurin conversion” value (HC6X; HC6X AAGLY D40 Remove dox, 1000 uM) was 77.2 and 89.1 and 81.5 and 96.6 and 108.9 and 116.8. For the same compound, the “resazurin conversion” value (HC6X; HC6X AAGLY D40 Remove dox, 2000 uM) was 95.3 and 105.5 and 72.8 and 94.8 and 76.2 and 80.9 and the “resazurin conversion” value (HC6X; HC6X AAGLY D40 Remove dox, 4000 uM) was 46.6 and 40.3 and 96 and 68.1 and 83.6 and 42.4.

From article PMC7069944, “Amino acid levels determine metabolism and CYP450 function of hepatocytes and hepatoma cell lines” (Nature Communications, 2020)
